The METLIN SMRT retention time set (Domingo-Almenara et al. 2019)

Test: gradient 5% acetonitrile 3 min, to 50% in 2 min, to 85% in 15 min, held 3 min, 100 µL/min
Settings: column: Zorbax Extend-C18 2.1 x 50 mm; eluents: water / acetonitrile, 0.1% formic acid
How it was run: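 Using water and acetonitrile that each contained 0.1% formic acid, mixtures of ~100 pure standards were separated at 100 μL/min on a Zorbax Extend-C18 column (2.1 × 50 mm, 1.8 μm). The HPLC fed a quadrupole time-of-flight mass spectrometer working in positive and negative ionization mode, with dead and dwell volumes of 40 μL and 900 μL. Data were acquired over 3 months. Retention time was read from computationally picked adduct peaks after manual inspection of each.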

SMILES | RP-LC retention time
CCCc1noc(-c2ccc(-n3ncc(C(=O)N4CCSCC4)c3C)nc2)n1 | 967 s
O=C(N1CCC(Cc2nc(-c3ccccc3)n[nH]2)C1)C1(c2ccccc2)CC1 (centres undefined) | 755 s
CS(=O)(=O)N1C[C@H]2CCN(Cc3cn[nH]c3-c3ccccc3)C[C@H]21 | 574 s
COc1ccc(S(=O)(=O)N2C[C@@H]3C[C@H]2C[C@@H]3NC(=O)c2ccccc2)cc1Cl | 861 s
CC1=C(c2ccc(C(C)C)cc2)S(=O)(=O)N=C1N1CCC(C(=O)NCCc2ccco2)CC1 | 947 s
CCCCN(C)C(=O)c1cn2cc(C)ccc2n1 | 608 s
CNC(=O)N1CCOc2cc(C)ccc21 | 713 s
CCc1ccc(C2=C(C)C(N3CCCN(C(=O)C(C)CC)CC3)=NS2(=O)=O)cc1 (centres undefined) | 888 s
Cc1ccsc1CN1CCc2nc(N3CCN(c4ccc(F)cc4)CC3)ncc2C1 | 734 s
Cc1cccc(-c2nsc(SCC(=O)N3CCc4ccccc43)n2)c1 | 1150 s
COc1ccc(CN2CCC3(CC2)CC(O)CCO3)cc1C (centres undefined) | 606 s
O=C([C@@H]1C[C@H](F)CN1C(=O)c1cccc(F)c1)N1CCCCC1 | 693 s
CS(=O)(=O)N1CCCc2ccc(NS(=O)(=O)c3ccccc3Cl)cc21 | 806 s
CCCN(CCC)CCc1c[nH]c2ccc(C(N)=O)cc12 | 640 s
CN(CCCNC(=O)Cn1c(=O)c2cccn2c2ccccc21)Cc1ccccc1 | 631 s
CC1CCN(S(=O)(=O)c2ccc(-c3cc(C(F)(F)F)on3)o2)CC1 | 1190 s
CC1CCN(c2ncc(C(=O)O)c(-c3ccncc3)n2)CC1 | 683 s
Cc1ccc(-c2noc(Cn3ccn4nc(-c5ccc6c(c5)OCO6)cc4c3=O)n2)cc1 | 1050 s
Cc1ccc(-c2nnc(CC(=O)NC(C)CCc3ccccc3)o2)cc1 (centres undefined) | 840 s
O=C(c1cnn(-c2ccc([N+](=O)[O-])cc2)c1C1CCNCC1)N1CCN(c2ccccn2)CC1 | 563 s
CC(C)OCCCNC(=O)C1CCN(S(=O)(=O)c2ccc3c(c2)CCCC(=O)N3)CC1 | 674 s
O=C(NCCn1nc(-n2ccnc2)ccc1=O)c1cc(-c2ccccc2)on1 | 572 s
COc1ccc(NC(=O)c2c(O)c3sccc3n(C)c2=O)cc1Cl | 1170 s

SMILES | RP-LC retention time
Cc1cc(-c2nnc(C3CC3)o2)c(C)n1CC(=O)Nc1cccc(F)c1 | 825 s
Cc1cc(N2CCN(c3ccccn3)CC2)n2nc(-c3cccc(Cl)c3)c(C)c2n1 | 828 s
Cn1c(=O)c(=O)n(C)c2cc(N3CCCC3)c(NC(=O)Cc3ccc(Cl)cc3)cc21 | 685 s
CC1=C(c2ccccc2)S(=O)(=O)N=C1N1CCCN(C(=O)NCc2ccccc2)CC1 | 843 s
Cc1ccc(=O)n(CCNC(=O)c2cncc(Br)c2)n1 | 579 s
COc1ccc(OC)c(CNC(=O)c2cc(-c3ccccc3)cn2C)c1 | 1020 s
Cn1cc(CN2CCC(C(=O)NCCCN3CCOCC3)CC2)c2cc(Cl)ccc21 | 580 s
Cc1cc(C2CCCN2C(=O)Nc2ccccc2C(F)(F)F)no1 (centres undefined) | 895 s
COCc1noc([C@@H]2CC(F)(F)CN2C(=O)c2coc(C)n2)n1 | 717 s
Cc1ccc(CNC(=O)CC2CCOC3(CCN(S(C)(=O)=O)CC3)C2)o1 (centres undefined) | 705 s
CCOC(=O)c1ccc(NC(=O)CSc2cc(N3CCC(C(=O)NC4CC4)CC3)ncn2)cc1 | 748 s
CCc1nn(CC(=O)N2CCC(C(N)=O)CC2)c(=O)c2cc3occc3n12 | 612 s
CCCCS(=O)(=O)N1CC[C@H](CN(C)C(C)=O)[C@H](N(C)C)C1 | 584 s
CSc1cccc(NC(=O)c2cccn2Cc2noc(C)n2)c1 | 899 s
CCOC(=O)Cn1c(=O)c2c(nc3n2CC(C)CN3c2ccc(OCC)cc2)n(C)c1=O (centres undefined) | 958 s
O=S(=O)(c1cccc2nsnc12)N1CCCn2nc(-c3ccncc3)cc2C1 | 591 s
CCn1nccc1C(=O)N1CCCC1c1ccccc1C (centres undefined) | 836 s
O=C(Cc1csc(NC(=O)Nc2ccccc2)n1)NCCc1c[nH]c2ccccc12 | 891 s
Cc1ccc(C(=O)NCC2CCCN(S(=O)(=O)c3c(C)c(C)cc(C)c3C)C2)cc1 (centres undefined) | 1100 s
COc1ccc(NC(=O)COc2cc(C)nc(N3CCN(c4ccccc4)CC3)n2)cc1 | 781 s
O=C(CCCCCN1C(=O)c2cccc3cccc(c23)C1=O)NO | 694 s
CCn1cc(C)c(C(=O)O)c1CC(=O)NCCC(C)C | 749 s
Cc1ccn2cc(-c3ccc(NC(=O)CCC4CCCC4)cc3)nc2n1 | 722 s

SMILES | RP-LC retention time
Cc1cccc(NC(=O)C2CCN(c3nnc4cccc(C)n34)CC2)c1 | 706 s
C#CCOCC1CCCN(S(=O)(=O)c2cc(F)ccc2OC)C1 (centres undefined) | 871 s
OC(CNCC(O)C1CCc2cc(F)ccc2O1)C1CCc2cc(F)ccc2O1 (centres undefined) | 744 s
Cn1cnc2ccc(-c3noc(CNC(=O)c4ccccc4)n3)cc21 | 624 s
CC(C)NC(=O)c1ccc(OCC2CCCN(C(=O)Cc3ccccc3Cl)C2)cc1 (centres undefined) | 899 s
O=C(NCc1ccc(C(F)(F)F)cc1)C1CCCN(c2nccnc2Sc2ccccc2)C1 (centres undefined) | 1140 s
CN1C(=O)c2ccccc2Sc2ccc(NC(=O)N3CCN(c4ccccn4)CC3)cc21 | 645 s
CCCNC(=O)c1cc2sc(CC)cc2n1C | 951 s
CC1CCN(CCNS(=O)(=O)c2ccccc2-c2nc(-c3cccc(F)c3)no2)CC1 | 755 s
Cc1cc(Cl)ccc1NC1=NS(=O)(=O)c2ccccc21 | 834 s
Cc1ccccc1CNC(=O)c1cc2n(n1)CC(C)(C(=O)NCc1ccccc1)N(C)C2=O (centres undefined) | 769 s
O=C(Cc1nnc2cc(-c3nc(C4CC4)no3)ccn12)Nc1ccc(Cl)cc1 | 816 s
CC(C)NC(=O)Cn1cnc2nc(N3CCC(C(=O)NC4CC4)CC3)sc2c1=O | 1060 s
COC(=O)Nc1nc2ccc(Br)cc2[nH]1 | 642 s
CCC(C(=O)NC(C)C(=O)Nc1nc2ccccc2[nH]1)c1ccccc1 (centres undefined) | 691 s
CCn1c(=O)c(N2CCN(C(=O)Nc3cc(Cl)c(OC)cc3OC)CC2)nc2cccnc21 | 982 s
CCc1noc2nc(C)n(CC(=O)NCc3ccccc3)c(=O)c12 | 753 s
O=C(COc1ccccc1F)Nc1ccc2c(c1)N(C(=O)c1ccco1)CCC2 | 834 s
CC(=O)Nc1ccc2c(c1)CN(C(=O)c1c(F)cccc1F)C(C(=O)N1CCCC1)C2 (centres undefined) | 873 s
Cc1ccccc1Nc1c(-c2ccc(Cl)cc2)nc2cccc(C)n12 | 804 s
O=C(COc1ccc(Cl)cc1Cl)Nc1c(-c2ccccc2)nc2ccccn12 | 738 s
Cc1noc(C)c1S(=O)(=O)N1CCc2c(c(-c3nnc(-c4ccc(F)cc4)o3)nn2C)C1 | 910 s
COc1cc(C2CC(=O)c3c(C)nc(N4CCN(C)CC4)nc3C2)cc(OC)c1OC (centres undefined) | 629 s

SMILES | RP-LC retention time
COc1ccc2c(c1)C=C(C(=O)Nc1ccccc1F)C=CO2 | 1020 s
CCOC(=O)C(=CNc1ccccc1Cl)C(=O)OCC | 1130 s
CCCCC(=O)Nc1ccc2nc(N3CCN(c4cc(Cl)ccc4C)CC3)cc(C(=O)O)c2c1 | 851 s
CC(C)c1nccn1C1CN(C(=O)COc2ccccc2)C1 | 596 s
CCOC(=O)c1noc2ncnc(Nc3cc(F)ccc3F)c12 | 799 s
COC(=O)CSc1nnc(CNC(=O)c2ccccc2F)n1Cc1ccccc1 | 683 s
N#CCc1ccc(NC(=O)C2CCCN(S(=O)(=O)Cc3ccccc3Cl)C2)cc1 (centres undefined) | 905 s
COc1ccc2nc(C(=O)NCc3cc(F)ccc3F)cn2n1 | 823 s
CCN(CC)S(=O)(=O)N1CCC(C(=O)N2CCN(Cc3noc4ccccc34)CC2)CC1 | 708 s
Cc1ccc(C)c(NC(=O)N2CCC(c3cc(N)on3)CC2)c1 | 698 s
CCCn1c(=O)sc2cc(S(=O)(=O)N3CCC(C(=O)NCC4CCCO4)CC3)ccc21 (centres undefined) | 763 s
COc1ccc(OCc2noc(CNC(=O)NCc3ccc(F)cc3)n2)cc1 | 770 s
O=C(Cn1cc(C(=O)C2CC2)c2ccccc21)NCc1ccc2c(c1)OCCCO2 | 831 s
O=C(NC1CC1)[C@@H]1C[C@H](Oc2cccnc2)CN1C(=O)C1CC=CC1 | 567 s
COc1cn(CC(=O)NCc2ccc(F)cc2)c(CN2CCC(C)CC2)cc1=O | 550 s
Cc1ccccc1CNC(=O)C1CCN(S(=O)(=O)c2c(C)[nH]c(C)c2C(=O)N2CCCC2)CC1 | 727 s
COc1cc(NC(=O)N2CCCC(C)(C(=O)NCc3ccc(F)cc3)C2)cc(OC)c1OC (centres undefined) | 778 s
CCCN(C)c1nccn2c(=O)n(CC(=O)Nc3ccc4c(c3)OCCO4)nc12 | 642 s
O=C(Cn1c(=O)c(=O)n(Cc2ccc(Cl)cc2)c2ccccc21)N1CCN(c2ccccn2)CC1 | 654 s
O=C(Nc1nc(-c2ccc3ccccc3c2)cs1)c1cccc(Cn2cc(Cl)cn2)c1 | 1140 s
